The values that follow are results of earlier work, collected in US20120059052A1, “PRENYLFLAVONOID FORMULATIONS” (BIOACTIVES, INC., priority 2005, published 2012).

In general, IC50 refers to the concentration at which inhibition is half-maximal.

In one data set the target is T1, Cyp1A1 (Homo sapiens, UniProt P04798).
T1 sequence (P04798 1-512): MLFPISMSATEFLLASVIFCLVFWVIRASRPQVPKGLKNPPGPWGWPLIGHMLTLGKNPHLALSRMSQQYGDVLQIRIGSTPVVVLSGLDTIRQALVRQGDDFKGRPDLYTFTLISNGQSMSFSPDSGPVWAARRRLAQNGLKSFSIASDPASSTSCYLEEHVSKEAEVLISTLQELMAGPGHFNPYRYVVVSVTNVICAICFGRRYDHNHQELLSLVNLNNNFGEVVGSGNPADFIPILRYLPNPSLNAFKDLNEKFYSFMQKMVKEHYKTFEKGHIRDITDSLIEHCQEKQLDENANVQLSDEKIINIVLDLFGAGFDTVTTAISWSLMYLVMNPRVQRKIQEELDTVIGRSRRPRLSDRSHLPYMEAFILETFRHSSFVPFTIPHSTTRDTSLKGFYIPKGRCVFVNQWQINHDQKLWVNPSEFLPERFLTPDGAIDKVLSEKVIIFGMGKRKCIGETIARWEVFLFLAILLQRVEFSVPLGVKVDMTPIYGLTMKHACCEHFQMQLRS
As to conditions: cDNA-expressed human enzyme; cited from earlier work.

The next data set deals with T2, inducible COX-2 (Homo sapiens, UniProt P35354).
T2 sequence (P35354 18-604): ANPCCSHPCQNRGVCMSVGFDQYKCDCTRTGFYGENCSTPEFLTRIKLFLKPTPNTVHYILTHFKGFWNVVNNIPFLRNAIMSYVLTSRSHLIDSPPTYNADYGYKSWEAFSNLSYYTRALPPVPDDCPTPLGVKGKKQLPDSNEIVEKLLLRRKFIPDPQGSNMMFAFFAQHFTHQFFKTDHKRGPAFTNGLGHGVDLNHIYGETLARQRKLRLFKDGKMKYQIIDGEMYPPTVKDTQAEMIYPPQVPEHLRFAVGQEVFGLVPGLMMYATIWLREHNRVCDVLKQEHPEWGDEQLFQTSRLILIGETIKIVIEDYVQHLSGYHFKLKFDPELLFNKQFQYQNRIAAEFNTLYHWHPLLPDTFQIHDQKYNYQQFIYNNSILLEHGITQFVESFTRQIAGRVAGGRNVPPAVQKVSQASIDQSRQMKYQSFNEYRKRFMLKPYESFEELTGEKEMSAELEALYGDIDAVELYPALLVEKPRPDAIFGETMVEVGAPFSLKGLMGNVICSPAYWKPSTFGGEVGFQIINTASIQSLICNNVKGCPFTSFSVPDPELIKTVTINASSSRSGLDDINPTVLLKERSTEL
The note with it: read-out: IC50, inhibition of COX-2; cited from earlier work.

Another data set has as its target T3, Cyp1B 1 (Homo sapiens, UniProt Q16678).
T3 sequence (Q16678 1-543): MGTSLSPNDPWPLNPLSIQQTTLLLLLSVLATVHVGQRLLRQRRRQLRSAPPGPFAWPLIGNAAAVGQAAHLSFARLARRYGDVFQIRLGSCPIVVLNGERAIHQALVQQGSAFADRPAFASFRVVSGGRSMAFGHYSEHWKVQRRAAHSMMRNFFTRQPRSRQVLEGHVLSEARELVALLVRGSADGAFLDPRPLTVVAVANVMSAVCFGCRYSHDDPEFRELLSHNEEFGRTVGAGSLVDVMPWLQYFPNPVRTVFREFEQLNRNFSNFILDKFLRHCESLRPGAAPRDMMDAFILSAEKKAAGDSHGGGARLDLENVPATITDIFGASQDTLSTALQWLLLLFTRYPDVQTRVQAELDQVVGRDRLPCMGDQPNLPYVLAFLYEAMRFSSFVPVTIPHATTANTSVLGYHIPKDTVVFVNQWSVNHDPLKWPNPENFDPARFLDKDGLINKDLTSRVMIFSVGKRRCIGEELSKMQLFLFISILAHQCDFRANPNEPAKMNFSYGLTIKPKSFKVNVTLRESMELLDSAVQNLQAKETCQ
The note with it: cDNA-expressed human enzyme; cited from earlier work.

Take `COc1cc(O)c(CC=C(C)C)c(O)c1C(=O)/C=C/c1ccc(O)cc1` [Xanthohumol, xanthohumol]: the “Inhibition of Cyp1A1” value at Cyp1A1 is “strongly inhibit”. On inducible COX-2, the IC50 was 42 µM. In addition, the “Inhibition of Cyp1B1” value at Cyp1B 1 is given as “strongly inhibit”.
